Results on 43 compounds are retold here after patent US20240360114A1 (SIRONAX LTD., priority 2021, published 2024).

Structures are written as SMILES.

A word on the EC50: it is the concentration at which the effect is half-maximal. Low readings indicate an effect from little substance, high ones a need for much substance.

For one assay, the system named is HT-1080 cells. As to the kind of experiment: HT-1080 cell viability assay (ferroptosis induced by RSL3, Cell Titer-Glo). The assay is classed as cell-based. The note with it: Homo sapiens, HT-1080, 20 h, ferroptosis inducer RSL3, 20 hours, ferroptosis inhibitory activity, Table 2. The gist of the method:
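EC50 fitted by sigmoidal dose-response regression on luminescent viability data normalized to untreated cells. Compounds ran as a 10-point, 3-fold series from 1.1 μM alongside RSL3 for 20 hours, after overnight seeding.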
(In general: In ATP-based viability assays light output follows the ATP content of the culture.)
Consider `CC1(C)CCC(c2ccc(NC3CCOCC3)cc2)CC1` [Compound 93, N-(4-(4,4-dimethylcyclohexyl)phenyl)tetrahydro-2H-pyran-4-amine], for which the EC50 lay within 0.1 to 100 nM.
`CC(C)(C)c1ccc(NC2CCC(NCC(O)CN)CC2)cc1` (stereo not shown) [Compound 349A, 1-amino-3-((4-((4-(tert-butyl)phenyl)amino)cyclohexyl)amino)propan-2-ol] displayed an EC50 of 0.1 to 100 nM.
`Cc1cc(N2CCC(C(F)(F)F)CC2)c(Cl)cc1NC1CCC(N)CC1` (stereo not shown) [Compound 56, N1-(5-chloro-2-methyl-4-(4-(trifluoromethyl)piperidin-1-yl)phenyl)cyclohexane-1,4-diamine] showed an EC50 of 0.1 to 100 nM.
On the same count and under the same terms, as for `NC1CCC(Nc2ccc(C3CCCC3)cc2)CC1` (single isomer, unassigned) [Compound 139A, N1-(4-cyclopentylphenyl)cyclohexane-1,4-diamine], the figure is 0.1 to 100 nM; as for `COCCOCCNc1ccc(C2CCC(C)(C)CC2)cc1` [Compound 79, 4-(4,4-dimethylcyclohexyl)-N-(2-(2-methoxyethoxy)ethyl)aniline], 100 to 1000 nM; as for `CN(C)CCCN1CCC(Nc2ccc(C3CCC(C)(C)CC3)cc2)CC1=O` (stereo not shown) [Compound 247, 1-(3-(dimethylamino)propyl)-4-((4-(4,4-dimethylcyclohexyl)phenyl)amino)piperidin-2-one], 0.1 to 100 nM.
The same measure, in the same setting: as for `CN(C)CC1CCC(Nc2ccc(C3CCC(C)(C)CC3)cc2)CC1` (single isomer, unassigned) [Compound 97A, N-(4-((dimethylamino)methyl)cyclohexyl)-4-(4,4-dimethylcyclohexyl)aniline], the figure is 0.1 to 100 nM.
On the same count and under the same terms, as for `CC1(N)CCC(Nc2ccc(N3CCC(C(F)(F)F)CC3)cc2)CC1` (stereo not shown) [Compound 51, 1-methyl-N4-(4-(4-(trifluoromethyl)piperidin-1-yl)phenyl)cyclohexane-1,4-diamine], the figure is 0.1 to 100 nM; as for `COCCOc1cc(NC2CCC(N)CC2)ccc1C(C)(C)C` (stereo not shown) [Compound 301A, N1-(4-(tert-butyl)-3-(2-methoxyethoxy)phenyl)cyclohexane-1,4-diamine], 0.1 to 100 nM.
With `CCC1CCN(c2ncc(NC3CCC(N)CC3)cn2)CC1` (stereo not shown) [Compound 43, N1-(2-(4-ethylpiperidin-1-yl)pyrimidin-5-yl)cyclohexane-1,4-diamine], the concentration giving a half-maximal response (EC50) lay within 0.1 to 100 nM.
On the same count and under the same terms, as for `CC1(C)CCC(c2ccc(NC3CCC(CN)C3)cc2)CC1` (stereo not shown) [Compound 83, N-(3-(aminomethyl)cyclopentyl)-4-(4,4-dimethylcyclohexyl)aniline], the figure is 0.1 to 100 nM.
`N[C@H]1CCC[C@H]1Nc1ccc(N2CCC(C(F)(F)F)CC2)cc1` [Compound 454, (1R, 2S)-N1-(4-(4-(trifluoromethyl)piperidin-1-yl)phenyl)cyclopentane-1.2-diamine] showed a concentration for a half-maximal effect (EC50) of 0.1 to 100 nM.
On the same count and under the same terms, then `Cc1nc(N2CC3CCC2CO3)ccc1NC1CC2(CC(N)C2)C1` (stereo not shown) [Compound 491, N2-(6-(2-oxa-5-azabicyclo[2.2.2]octan-5-yl)-2-methylpyridin-3-yl)spiro[3.3]heptane-2,6-diamine], with 0.1 to 100 nM.
Take `CC(C)(C)c1ccc(-c2ccc(NC3CCC(N)CC3)cc2)cc1` (stereo not shown) [Compound 220, N1-(4′-(tert-butyl)-[1,l′-biphenyl]-4-yl)cyclohexane-1,4-diamine]: the EC50 was 0.1 to 100 nM.
For `COc1nc(N2C[C@@H](C)O[C@@H](C)C2)ccc1NC[C@H]1CC[C@H](N)CC1` [Compound 511, N-(((1r,4R)-4-aminocyclohexyl)methyl)-6-((2S,6R)-2,6-dimethylmorpholino)-2-methoxypyridin-3-amine], the EC50 is 0.1 to 100 nM.
Same read-out and setting: as for `CCCc1ccc(NC2CCC(C)(N)CC2)cc1` (stereo not shown) [Compound 278, 1-methyl-N4-(4-propylphenyl)cyclohexane-1,4-diamine], the figure is 0.1 to 100 nM.
Still for that read-out and setting: then `CC(C)(C)c1ccc(N[C@@H]2C[C@H](N)C[C@H](Nc3ccc(C(C)(C)C)cc3)C2)cc1` [Compound 351, (1R, 3S,5r)-N1,N3-bis(4-(tert-butyl)phenyl)cyclohexane-1,3,5-triamine], with 0.1 to 100 nM; and `Cc1cc(N2CCCCC2)ccc1NC1C[C@H]2CC(N)C[C@H]2C1` (stereo partly drawn) [Compound 392, (3aR,6aS)-N2-(2-methyl-4-(piperidin-1-yl)phenyl) octahydropentalene-2,5-diamine], with 0.1 to 100 nM; and `CN1CCN(CC(=O)N2CCC(Nc3ccc(C(C)(C)C)cc3)CC2)C(=O)C1` [Compound 245, 1-(2-(4-((4-(tert-butyl)phenyl)amino)piperidin-1-yl)-2-oxoethyl)-4-methylpiperazin-2-one], with 1000 to 10000 nM.
On the same count and under the same terms, as for `NC1CCC(Nc2ncc(N3CCC(C(F)(F)F)CC3)cn2)CC1` (single isomer, unassigned) [Compound 64A], the figure is 1000 to 10000 nM; as for `Cc1nc(N2C[C@@H](C)N(CC(F)(F)F)[C@@H](C)C2)ccc1NC1C2CC3CC1CC(N)(C3)C2` (stereo partly drawn) [Compound 540, N4-(6-((3R,5S)-3,5-dimethyl-4-(2,2,2-trifluoroethyl)piperazin-1-yl)-2-methylpyridin-3-yl)adamantane-1,4-diamine], 0.1 to 100 nM; as for `CC(C)(C)c1ccc(NC2CCC(CN)C2)cc1` (stereo not shown) [Compound 241, N-(3-(aminomethyl)cyclopentyl)-4-(tert-butyl)aniline], 0.1 to 100 nM.
As to `CCCC1CN(c2ncc(NC3CCC(N)CC3)cn2)C1` (stereo not shown) [Compound 46, N1-(2-(3-propylazetidin-1-yl)pyrimidin-5-yl)cyclohexane-1,4-diamine], the EC50 lay within 100 to 1000 nM.
On the same count and under the same terms, as for `CC(C)(C)c1ccc(NC2C3CC4CC2CC(CN)(C4)C3)cc1` (stereo not shown) [Compound 98, 5-(aminomethyl)-N-(4-(tert-butyl)phenyl)adamantan-2-amine], the figure is 0.1 to 100 nM; as for `CC1CN(c2ccc(NC3CCC(C)(N)CC3)cc2F)CC(C)O1` (stereo not shown) [Compound 458, N1-(4-(2,6-dimethylmorpholino)-3-fluorophenyl)-4-methylcyclohexane-1,4-diamine], 100 to 1000 nM.
The same measure, in the same setting: then `N[C@H]1CC[C@H](CCNc2ccc(N3CCC(C(F)(F)F)CC3)cc2F)CC1` [Compound 394, N-(2-((1r, 4r)-4-aminocyclohexyl)ethyl)-2-fluoro-4-(4-(trifluoromethyl)piperidin-1-yl)aniline], with 0.1 to 100 nM.
The same measure, in the same setting: as for `Cc1cc(NC2CCC(N)CC2)ccc1N1CCC(C(F)(F)F)CC1` (stereo not shown) [Compound 66, N1-(3-methyl-4-(4-(trifluoromethyl)piperidin-1-yl)phenyl)cyclohexane-1,4-diamine], the figure is 0.1 to 100 nM.
Compound `NC1CCC(Nc2ccc(Br)cc2)CC1` (stereo not shown) [Compound 165, N1-(4-bromophenyl)cyclohexane-1,4-diamine] showed an EC50 of 1000 to 10000 nM.
As for `CCC(C)(C)c1ccc(NC2CC(N)C2)cc1` (stereo not shown) [Compound 273, N1-(4-(tert-pentyl)phenyl)cyclobutane-1,3-diamine], the EC50 fell in the range of 0.1 to 100 nM.
`CNC(=O)C1CCC(Nc2ccc(N3CCC(C(F)(F)F)CC3)cc2)CC1` (stereo not shown) [Compound 365, N-methyl-4-((4-(4-(trifluoromethyl)piperidin-1-yl)phenyl)amino)cyclohexane-1-carboxamide] showed an EC50 of 0.1 to 100 nM.
Same read-out and setting: as for `CC(C)(C)c1ccc(NC2CCC(N)(C(N)=O)CC2)cc1` (stereo not shown) [Compound 212, 1-amino-4-((4-(tert-butyl)phenyl)amino)cyclohexane-1-carboxamide], the figure is 1000 to 10000 nM.

The same assay, now with this note: Homo sapiens, HT-1080, 20 h, ferroptosis inducer RSL3, 20 hours, ferroptosis inhibitory activity, Table 3.
On to `Cc1cc(N2CC[Si](C)(C)CC2)ccc1NC1CC2(CC(N)C2)C1` (stereo not shown) [Compound 634, N2-(4-(4.4-dimethyl-1,4-azasilinan-1-yl)-2-methylphenyl)spiro[3.3]heptane-2,6-diamine], for which the EC50 lay within 0.1 to 100 nM.
In the case of `Cc1nc(N2CC(C)N(CC(F)(F)F)C(C)C2)c(F)cc1NC1CC2(CC(N)C2)C1` (stereo not shown) [Compound 641, N^2-(6-(3,5-dimethyl-4-(2,2,2-trifluoroethyl)piperazin-1-yl)-5-fluoro-2-methylpyridin-3-yl)spiro [3.3]heptane-2,6-diamine], the EC50 is 0.1 to 100 nM.
Still for that read-out and setting: then `Cc1cc(N2CC(C)N(C(=O)C(F)(F)F)C(C)C2)ccc1NC1CC2(CC(N)C2)C1` (stereo not shown) [Compound 644, 1-(4-(4-((6-aminospiro[3.3]heptan-2-yl)amino)-3-methylphenyl)-2,6-dimethylpiperazin-1-yl)-2,2,2-trifluoroethan-1-one], with 0.1 to 100 nM.
Still for that read-out and setting: as for `CN(C)c1ccc2cc(NC3CC4(CC(N)C4)C3)ccc2c1` (stereo not shown) [Compound 601, N2-(6-aminospiro[3.3]heptan-2-yl)-N^6,N^6-dimethylnaphthalene-2,6-diamine], the figure is 0.1 to 100 nM; as for `CC1CN(c2ccc(NC3CC(N)C3)cc2F)CC(C)N1CC(F)(F)F` (stereo not shown) [Compound 604, N1-(4-(3,5-dimethyl-4-(2,2,2-trifluoroethyl)piperazin-1-yl)-3-fluorophenyl)cyclobutane-1,3-diamine], 0.1 to 100 nM; as for `Cc1nc(N2C[C@@H](C)O[C@@H](C)C2)ccc1NC12CCC(N)(CC1)C2` [Compound 627], 100 to 1000 nM.
Regarding `Cc1nc(N2CCN(C)C(C(F)(F)F)C2)ccc1NC1CC2(CC(N)C2)C1` (stereo not shown) [Compound 606, N2-(2-methyl-6-(4-methyl-3-(trifluoromethyl)piperazin-1-yl)pyridin-3-yl)spiro[3.3]heptane-2,6-diamine], the EC50 lay within 0.1 to 100 nM.
The same measure, in the same setting: as for `[2H]C1(Nc2ccc(N3C[C@@H](C)O[C@@H](C)C3)nc2C)CC2(CC(N)C2)C1` (stereo partly shown) [Compound 645], the figure is 0.1 to 100 nM; as for `CC(=O)N1C(C)CN(c2ccc(NC3CC4(CC(N)C4)C3)c(C)n2)CC1C` (stereo not shown) [Compound 600], 100 to 1000 nM; as for `Cc1nc(N2CC(C)(C)OC(C)(C)C2)ccc1NC1CC2(CC(NCC(F)(F)F)C2)C1` (stereo not shown) [Compound 589], 0.1 to 100 nM.

The same assay, now with this note: Homo sapiens, ferroptosis inducer RSL3, 20 hours, ferroptosis inhibitory activity, Table 2.
Take `CCCCN(CCCC)CCNc1ccc(C2CCCCC2)cc1` [Compound 173, N1,N1-dibutyl-N2-(4-cyclohexylphenyl)ethane-1,2-diamine]: the EC50 was in the range of 100 to 1000 nM.
On the same count and under the same terms, as for `NC1CCC(Nc2ccc(C3CCC3)cc2)CC1` (stereo not shown) [Compound 318A, 1-N-(4-cyclobutylphenyl)cyclohexane-1,4-diamine], the figure is 0.1 to 100 nM.
